Earlier results on four molecules are cited in patent US9272037B2, “Method to treat premature ejaculation in humans” (priority 2005, dated 2016).

Data set [1] deals with humans.
The conditions of data set [2]: for accumulation during multiple dose treatment: multiple dose treatment with tramadol.
The target of data set [3] is μ-opiate receptors (Homo sapiens, UniProt P35372).
Data set [4] has as its system child. As to conditions: inadvertent administration of 4 mg/kg to a child.
The conditions of data set [5]: single oral dose of tramadol 100 mg.
For data set [6] the following is noted: oral, Viagra formulation.
Data set [7] concerns the target phosphodiesterase type 5 (PDE5) (Homo sapiens, UniProt O76074). As to conditions: PDE5 versus PDE6.

μ-opiate receptors, sequence (P35372 whole entry): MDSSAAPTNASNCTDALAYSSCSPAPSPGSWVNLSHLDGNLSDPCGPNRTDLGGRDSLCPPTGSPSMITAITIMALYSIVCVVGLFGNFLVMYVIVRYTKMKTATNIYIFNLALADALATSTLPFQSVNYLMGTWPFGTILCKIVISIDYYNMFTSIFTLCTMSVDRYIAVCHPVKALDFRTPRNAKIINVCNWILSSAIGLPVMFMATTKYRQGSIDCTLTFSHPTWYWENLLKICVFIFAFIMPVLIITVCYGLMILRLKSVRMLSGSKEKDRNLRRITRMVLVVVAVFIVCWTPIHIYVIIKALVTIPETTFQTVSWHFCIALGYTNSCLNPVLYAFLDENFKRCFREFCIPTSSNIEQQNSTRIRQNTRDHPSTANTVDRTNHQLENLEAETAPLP

Take `Cn1c(=O)c2c(ncn2C)n(C)c1=O` [caffeine, 3,7-dihydro-1,3,7-trimethyl-1H-purine-2,6-dione]: for the setting “after oral, rectal or parenteral administration”, the “time to maximal plasma concentrations” value is at most 1 h. Also, where the note is “in vivo”, the half-life in plasma is 3 to 7 h. The “amount needed to affect sleep significantly” value in data set [1] is “more than 200 mg”.

As a reminder, the half-life is the time needed for the level to fall by half in the phase considered. With `CN(C)C[C@H]1CCCC[C@]1(O)c1cccc(O)c1` [O-desmethyltramadol (M1), O-desmethyltramadol], in data set [2], the “accumulation during multiple dose treatment” value was “approximately 2 fold”. In data set [2] (single oral dose of 100 mg tramadol), the half-life is 9 h.

As to `COc1cccc(C2(O)CCCCC2CN(C)C)c1` (racemic) [tramadol, (+/−)-trans (RR,SS)-2-[(di-methylamino)methyl]-1-(3-methoxyphenyl)cyclohexanol], in data set [2], the “accumulation during multiple dose treatment” value is on record as “approximately 2 fold”. In addition, in data set [2] (oral administration), the “time to peak serum concentrations” value is at most 2 h. For the same molecule, in data set [3] (versus codeine), the “affinity for μ-opiate receptors, fold less than codeine” value was 10 fold. Further, the “affinity for μ-opiate receptors, fold less than d-propoxyphene” value in data set [3] (versus d-propoxyphene) is on record as 100 fold. The “affinity for μ-opiate receptors relative to dextromethorphan” value in data set [3] (versus dextromethorphan) was “equivalent to dextromethorphan”. Moreover, the “affinity for μ-opiate receptors, fold less than morphine” value in data set [3] (versus morphine) is on record as 6,000 fold. In data set [4], the “adverse event after overdose” value is on record as “seizure activity”. For the same molecule, the “duration of the analgesic effect” value in data set [5] is on record as “about 6 hours”.

Consider `CCCc1nn(C)c2c(=O)[nH]c(-c3cc(S(=O)(=O)N4CCN(C)CC4)ccc3OCC)nc12` [sildenafil, 1-[[3-(6,7-dihydro-1-methyl-7-oxo-3-propyl-1H-pyrazolo[4,3-d]pyrimidin-5-yl)-4-ethoxyphenyl]sulfonyl]-4-methyl piperazine], for which, in data set [6], the absolute bioavailability result was “about 40%”. Further, the “potency for PDE5 compared to PDE6” value in data set [7] was “about 10 fold”.
